The record followed here is patent publication US20250376472A1, “3-(PHENYLSULFONYL)-[1,2,3]TRIAZOLO[1,5A]QUINAZOLIN-5(4H)-ONE DERIVATIVES” (priority 2022, published 2025).

The experiment concerns the target T1, AgrA (Staphylococcus aureus, UniProt P0A0I7).
T1 construct: endogenous in cells; host or cells: S. aureus USA300 strain UAMS-1625 carrying a P3-lacZ reporter plasmid
Description: cell-based. The arrangement: species or system S. aureus. As to conditions: for Ratio IC50 (in presence of HSA)/IC50 (in absence of HSA): 40 mg/mL HSA versus no HSA. The procedure:
The inventive compounds are 3-(phenylsulfonyl)-[1,2,3]triazolo[1,5a]quinazolin-5(4h)-one derivatives comprising an N-bound piperazine or homopiperazine at the 8-position of the [1,2,3]triazolo[1,5a]quinazolin-5(4h)-one core, further substituted (on the second nitrogen atom) by an (optionally substituted) acetyl or propionyl amide group. […] Specifically, the reporter gene lacZ (which encodes the protein product β-galactosidase) was transfected into S. aureus with a plasmid under control of the P3 promoter. The compounds were serially diluted in lysogeny broth (LB), and incubated with S. aureus. Following incubation, the S. aureus cells were lysed and treated with 4-methylumbelliferyl-galactopyranoside (MUG). The β-galactosidase produced by expression of lacZ cleaved the MUG into galactopyranose and 4-methylumbelliferone, which was measured by fluorescence.
The resulting reporter strain was used to measure AgrA inhibitory activity as follows. From an overnight culture plate, cells were resuspended in 0.9% (w/v) saline solution and bacterial inoculum was prepared in LB medium with 5×10^5 CFU/ml. Compounds were two-fold serially diluted in LB and 50 μL of this 10× concentrated samples were added into the 96-deep well plate. 500 μL of bacterial suspension was finally added to the compounds or DMSO control. Plates were covered and incubated with shaking at 37° C. After 18 hours incubation, 100 μL was transferred to a new clear 96-well plate and the OD600 was measured using a TECAN Infinite F200 microplate reader to control for growth inhibition. Another 100 μL was transferred to a new black 96-well plate containing 30 μL of lysis buffer (20 mM Tris/HCl, 3 mM MgCl2, 0.5% Tween 20 (v/v), 0.5% NP-40 (v/v)) and the plate was incubated with shaking at 37° C. for 60 min. 20 μL of the substrate MUG (4-Methylumbelliferyl O-D-galactopyranoside) at 0.25 mg/ml was added and the fluorescence (excitation: 360 nm, emission: 450 mu) was measured with a TECAN Infinite F200 microplate reader after 3 hours incubation at 37° C. with shaking. The IC50 was determined using GraphPad PRISM after normalization to DMSO control.

Where [1] appears, read: IC50 at 40 mg/mL HSA, LB medium supplemented with human serum albumin 40 mg/mL.
[2] abbreviates: IC50 without HSA, LB medium, no human serum albumin, 18 hours incubation.
Where [3] appears, read: LB medium supplemented with human serum albumin 40 mg/mL.
Setting [4] is: LB medium, no human serum albumin, 18 hours incubation.

Molecules are shown by their SMILES.

T1 sequence (P0A0I7 whole entry): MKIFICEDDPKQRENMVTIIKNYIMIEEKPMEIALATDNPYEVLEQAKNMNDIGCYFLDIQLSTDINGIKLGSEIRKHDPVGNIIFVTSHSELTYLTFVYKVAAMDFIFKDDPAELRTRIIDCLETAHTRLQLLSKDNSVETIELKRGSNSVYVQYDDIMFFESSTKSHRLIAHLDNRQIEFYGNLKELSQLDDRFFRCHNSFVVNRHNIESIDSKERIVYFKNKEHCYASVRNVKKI

Consider `Cc1ccc(S(=O)(=O)c2nnn3c2[nH]c(=O)c2ccc(N4CCN(CC(=O)N5CCNC(=O)C5)CC4)cc23)c(C)c1` [Compound 62], for which the IC50 lay in the range of 17.3 to 86.4 µM under setting [1] and 1.73 to 8.64 µM under setting [2].
For `Cc1ccc(S(=O)(=O)c2nnn3c2[nH]c(=O)c2ccc(N4CCCN(CC(=O)NCc5ccccc5)CC4)cc23)c(C)c1` [Compound 123], in that order: 16.7 to 83.4 µM and below 1.67 µM.
For `Cc1ccc(S(=O)(=O)c2nnn3c2[nH]c(=O)c2ccc(N4CCN(CC(=O)NCCC(C)C)CC4)cc23)c(C)c1` [Compound 11], in that order: 17.7 to 88.4 µM and below 1.77 µM.
For the molecule `Cc1ccc(S(=O)(=O)c2nnn3c2[nH]c(=O)c2ccc(N4CCCN(CC(=O)N5CCCCC5)CC4)cc23)c(C)c1` [Compound 85], the IC50 by setting is: under setting [1], 17.3 to 86.5 µM; under setting [2], 1.73 to 8.65 µM.
For `Cc1ccc(S(=O)(=O)c2nnn3c2[nH]c(=O)c2ccc(N4CCN(CC(=O)N5CCC5)CC4)cc23)c(C)c1` [Compound 54], in that order: 18.7 to 93.3 µM and below 1.87 µM.
Regarding `Cc1ccc(S(=O)(=O)c2nnn3c2[nH]c(=O)c2ccc(N4CCN(CC(=O)NCCN)CC4)cc23)c(C)c1` [Compound 131], the IC50 is 18.6 to 92.8 µM under setting [1] and 1.86 to 9.28 µM under setting [2].
Taken in the same sequence, the figures for `Cc1ccc(S(=O)(=O)c2nnn3c2[nH]c(=O)c2ccc(N4CCN(CC(=O)NC5CCNC5)CC4)cc23)c(C)c1` (centres unmarked) [Compound 136] were 17.7 to 88.5 µM and 1.77 to 8.85 µM.
For `Cc1ccc(S(=O)(=O)c2nnn3c2[nH]c(=O)c2ccc(N4CCN(CC(=O)NCCOCCO)CC4)cc23)c(C)c1` [Compound 21], in that order: 17.1 to 85.7 µM and below 1.71 µM.
Taken in the same sequence, the figures for `Cc1ccc(S(=O)(=O)c2nnn3c2[nH]c(=O)c2ccc(N4CCCN(CC(=O)NCCO)CC4)cc23)c(C)c1` [Compound 32] were 18.1 to 90.3 µM and 1.81 to 9.03 µM.
As to `Cc1ccc(S(=O)(=O)c2nnn3c2[nH]c(=O)c2ccc(N4CCN(CC(=O)N5CCC(F)(F)CC5)CC4)cc23)c(C)c1` [Compound 64], the IC50 was 16.7 to 83.4 µM under setting [1] and below 1.67 µM under setting [2].
For the molecule `Cc1ccc(S(=O)(=O)c2nnn3c2[nH]c(=O)c2ccc(N4CCN(CC(=O)N5CCC(O)C5)CC4)cc23)c(C)c1` (centres unmarked) [Compound 75], the “Ratio IC50 (in presence of HSA)/IC50 (in absence of HSA)” value (shortened to “Ratio IC50 (in presence of HSA)/IC50”) is on record as “+++ (+++: ratio ≤ 25)”. Further, the “IC50 at 40 mg/mL HSA” value under setting [3] is listed as “++ (++: 10 μg/mL < IC50 ≤ 50 μg/mL)”. In addition, under setting [4], the “IC50 without HSA” value is listed as “++ (++: 1 μg/mL < IC50 ≤ 5 μg/mL)”.
With `Cc1ccc(S(=O)(=O)c2nnn3c2[nH]c(=O)c2ccc(N4CCN(CC(=O)N5CCCC(=O)CC5)CC4)cc23)c(C)c1` [Compound 72], the IC50 is, setting by setting: under setting [1], 16.9 to 84.5 µM; under setting [2], below 1.69 µM.
For `Cc1ccc(S(=O)(=O)c2nnn3c2[nH]c(=O)c2ccc(N4CCN(CC(=O)N5CCNCC5)CC4)cc23)c(C)c1` [Compound 134], in that order: below 17.7 µM and 1.77 to 8.85 µM.
For `Cc1ccc(S(=O)(=O)c2nnn3c2[nH]c(=O)c2ccc(N4CCN(CC(=O)N5CCC6(CCCC6)C5)CC4)cc23)c(C)c1` [Compound 126], in that order: 16.6 to 82.8 µM and below 1.66 µM.
Taken in the same sequence, the figures for `CSCCNC(=O)CN1CCN(c2ccc3c(=O)[nH]c4c(S(=O)(=O)c5ccc(C)cc5C)nnn4c3c2)CC1` [Compound 18] were 17.6 to 87.8 µM and below 1.76 µM.
Take `Cc1ccc(S(=O)(=O)c2nnn3c2[nH]c(=O)c2ccc(N4CCN(CC(=O)N5CCC(CN)C5)CC4)cc23)c(C)c1` (centres unmarked) [Compound 137]: the IC50 runs as follows: under setting [1], 17.3 to 86.4 µM; under setting [2], 1.73 to 8.64 µM.
For `Cc1ccc(S(=O)(=O)c2nnn3c2[nH]c(=O)c2ccc(N4CCN(CC(=O)NCc5ccccc5)CC4)cc23)c(C)c1` [Compound 106], in that order: 17.1 to 85.4 µM and below 1.71 µM.
For `Cc1ccc(S(=O)(=O)c2nnn3c2[nH]c(=O)c2ccc(N4CCN(CC(=O)NCCN5CCN(C)CC5)CC4)cc23)c(C)c1` [Compound 89], in that order: 16.1 to 80.4 µM and 1.61 to 8.04 µM.
For the molecule `Cc1ccc(S(=O)(=O)c2nnn3c2[nH]c(=O)c2ccc(N4CCN(CC(=O)N5CCCC(CN)C5)CC4)cc23)c(C)c1` (centres unmarked) [Compound 144], the IC50 is, setting by setting: under setting [1], below 16.9 µM; under setting [2], 1.69 to 8.44 µM.
As to `Cc1ccc(S(=O)(=O)c2nnn3c2[nH]c(=O)c2ccc(N4CCN(CC(=O)N5CCCCCC5)CC4)cc23)c(C)c1` [Compound 56], the “Ratio IC50 (in presence of HSA)/IC50” value is reported as “++ (++: 25 < ratio ≤ 125)”. In addition, the “IC50 at 40 mg/mL HSA” value under setting [3] is “++ (++: 10 μg/mL < IC50 ≤ 50 μg/mL)”. In addition, the “IC50 without HSA” value under setting [4] is recorded as “+++ (+++: IC50 ≤ 1 μg/mL)”.
For the molecule `Cc1ccc(S(=O)(=O)c2nnn3c2[nH]c(=O)c2ccc(N4CCN(CC(=O)NCC5CCCO5)CC4)cc23)c(C)c1` (centres unmarked) [Compound 96], the IC50 reads like this: under setting [1], 17.3 to 86.3 µM; under setting [2], below 1.73 µM.
As to `Cc1ccc(S(=O)(=O)c2nnn3c2[nH]c(=O)c2ccc(N4CCN(CC(=O)N5CCCC(N)C5)CC4)cc23)c(C)c1` (centres unmarked) [Compound 143], the “Ratio IC50 (in presence of HSA)/IC50” value is recorded as “+++ (+++: ratio ≤ 25)”. Besides, the “IC50 at 40 mg/mL HSA” value under setting [3] is listed as “+++ (+++: IC50 ≤ 10 μg/mL)”. The “IC50 without HSA” value under setting [4] was “++ (++: 1 μg/mL < IC50 ≤ 5 μg/mL)”.
On to `COCCNC(=O)CN1CCCN(c2ccc3c(=O)[nH]c4c(S(=O)(=O)c5ccc(C)cc5C)nnn4c3c2)CC1` [Compound 31], for which the “Ratio IC50 (in presence of HSA)/IC50” value is listed as “+++ (+++: ratio ≤ 25)”. Also, under setting [3], the “IC50 at 40 mg/mL HSA” value was “+++ (+++: IC50 ≤ 10 μg/mL)”. In addition, the “IC50 without HSA” value under setting [4] is “+++ (+++: IC50 ≤ 1 μg/mL)”.
Regarding `Cc1ccc(S(=O)(=O)c2nnn3c2[nH]c(=O)c2ccc(N4CCN(CC(=O)N5CCCN(C)CC5)CC4)cc23)c(C)c1` [Compound 69], the IC50 is, setting by setting: under setting [1], below 16.9 µM; under setting [2], 1.69 to 8.44 µM.
`Cc1ccc(S(=O)(=O)c2nnn3c2[nH]c(=O)c2ccc(N4CCN(CC(=O)N5CCCC5)CC4)cc23)c(C)c1` [Compound 1, 3-(2,4-dimethylphenyl)sulfonyl-8-[4-(2-oxo-2-pyrrolidin-1-yl-ethyl)piperazin-1-yl]-4H-triazolo[1,5-a]quinazolin-5-one]: the “Ratio IC50 (in presence of HSA)/IC50” value is “++ (++: 25 < ratio ≤ 125)”. The molecule further yielded a half-maximal inhibitory concentration (IC50) under setting [1] of 18.2 to 91 µM. Besides, the IC50 under setting [2] was below 1.82 µM.
Consider `Cc1ccc(S(=O)(=O)c2nnn3c2[nH]c(=O)c2ccc(N4CCN(CC(=O)N5C(C)CCC5C)CC4)cc23)c(C)c1` (centres unmarked) [Compound 74], for which the “Ratio IC50 (in presence of HSA)/IC50” value was “+++ (+++: ratio ≤ 25)”. Under setting [3], the “IC50 at 40 mg/mL HSA” value is “++ (++: 10 μg/mL < IC50 ≤ 50 μg/mL)”. For the same molecule, the “IC50 without HSA” value under setting [4] is recorded as “+++ (+++: IC50 ≤ 1 μg/mL)”.
In turn, `Cc1ccc(S(=O)(=O)c2nnn3c2[nH]c(=O)c2ccc(N4CCN(CC(=O)N5CC(C6CC6)C5)CC4)cc23)c(C)c1` [Compound 73] yielded an IC50 under setting [1] of 17.4 to 86.9 µM and an IC50 under setting [2] below 1.74 µM.
Taken in the same sequence, the figures for `Cc1ccc(S(=O)(=O)c2nnn3c2[nH]c(=O)c2ccc(N4CCN(CC(=O)NCCCC(F)(F)F)CC4)cc23)c(C)c1` [Compound 15] were 16.5 to 82.6 µM and below 1.65 µM.
Taken in the same sequence, the figures for `CCN(C)C(=O)CN1CCN(c2ccc3c(=O)[nH]c4c(S(=O)(=O)c5ccc(C)cc5C)nnn4c3c2)CC1` [Compound 9] were 18.6 to 93 µM and below 1.86 µM.
Consider `Cc1ccc(S(=O)(=O)c2nnn3c2[nH]c(=O)c2ccc(N4CCCN(CC(=O)NC5CCC5)CC4)cc23)c(C)c1` [Compound 51], for which the IC50 by setting is: under setting [1], 17.7 to 88.7 µM; under setting [2], below 1.77 µM.
As to `Cc1ccc(S(=O)(=O)c2nnn3c2[nH]c(=O)c2ccc(N4CCN(CC(=O)NCCC(F)(F)F)CC4)cc23)c(C)c1` [Compound 14], the IC50 is 16.9 to 84.5 µM under setting [1] and below 1.69 µM under setting [2].
Taken in the same sequence, the figures for `Cc1ccc(S(=O)(=O)c2nnn3c2[nH]c(=O)c2ccc(N4CCN(CC(=O)NCCc5ccccc5)CC4)cc23)c(C)c1` [Compound 109] were 16.7 to 83.4 µM and below 1.67 µM.
For `Cc1ccc(S(=O)(=O)c2nnn3c2[nH]c(=O)c2ccc(N4CCN(CC(=O)N5CCN(C(C)(C)C)CC5)CC4)cc23)c(C)c1` [Compound 59], in that order: below 16.1 µM and 1.61 to 8.05 µM.
As to `Cc1ccc(S(=O)(=O)c2nnn3c2[nH]c(=O)c2ccc(N4CCN(CC(=O)N5CCCC(CCN)C5)CC4)cc23)c(C)c1` (centres unmarked) [Compound 146], the “Ratio IC50 (in presence of HSA)/IC50” value was “+++ (+++: ratio ≤ 25)”. Also, the “IC50 at 40 mg/mL HSA” value under setting [3] is listed as “+++ (+++: IC50 ≤ 10 μg/mL)”. The “IC50 without HSA” value under setting [4] is “++ (++: 1 μg/mL < IC50 ≤ 5 μg/mL)”.
Consider `Cc1ccc(S(=O)(=O)c2nnn3c2[nH]c(=O)c2ccc(N4CCN(CC(=O)NCCn5cccc5)CC4)cc23)c(C)c1` [Compound 115], for which the IC50 is 17 to 84.9 µM under setting [1] and below 1.7 µM under setting [2].

By IC50 is commonly meant the point on the concentration scale where inhibition reaches its midpoint. A lower IC50 goes with greater potency.
